In US4894458A, “Quinolonecarboxylic acid derivatives and their preparation” (Kyorin Pharmaceutical Co., Ltd., priority 1986, dated 1990):
Converted amounts (≈) assume the structure as drawn. Read-outs that look alike come from different tables or passages of the source.

Legend:
[1] = system: gram-negative and gram-positive bacteria; conditions: cited from earlier work
[2] = system: B. fragilis 0558; assay: In vitro antibacterial activity (anaerobic bacteria), MIC; type: cell-based; conditions: Bacteroides fragilis
[3] = system: Salmonella enteritidis IID 604; assay: In vitro antibacterial activity (aerobic bacteria), MIC; type: cell-based; conditions: Salmonella enterica
[4] = system: Veillonella parvula KYA 10790; assay: In vitro antibacterial activity (anaerobic bacteria), MIC; type: cell-based; conditions: KYA10790
[5] = system: Peptococcus magnus KY 017; assay: as above; type: cell-based; conditions: 10^6 cells/ml
Experimental: (§1) Minimal inhibitory concentrations (MICs) were determined in accordance with the method recommended by Japan Society of Chemotherapy.

[6] = system: Enterobacter cloacae IID 977; assay: In vitro antibacterial activity (aerobic bacteria), MIC; type: cell-based; conditions: IID977
[7] = system: Eubacterium lentum GAI 5242; assay: In vitro antibacterial activity (anaerobic bacteria), MIC; type: cell-based; conditions: Eggerthella lenta, GAI5242
[8] = system: Propionibacterium acens 11828; assay: as above; type: cell-based; conditions: anaerobic, Gram +, 10^6 cells/ml, read-out: MIC
[9] = system: C. perfringens KYA 13123; assay: microbe, parasite or virus in culture; type: cell-based; conditions: Clostridium perfringens, KYA13123
[10] = system: Yersinia enterocolitica IID 981; assay: microbe, parasite or virus in culture; type: cell-based; conditions: IID981
[11] = system: B. fragilis 25285; assay: In vitro antibacterial activity (anaerobic bacteria), MIC; type: cell-based; conditions: Bacteroides fragilis
[12] = system: Bacillus subtilis PCI 219; assay: In vitro antibacterial activity (aerobic bacteria), MIC; type: cell-based; conditions: PCI219
[13] = system: F. varium KYA 8501; assay: In vitro antibacterial activity (anaerobic bacteria), MIC; type: cell-based; conditions: Fusobacterium varium, KYA8501; anaerobic; Gram -; 10^6 cells/ml; read-out: MIC
[14] = system: P. aeruginosa IID 1210; assay: In vitro antibacterial activity (aerobic bacteria), MIC; type: cell-based; conditions: Pseudomonas aeruginosa, IID1210, aerobic; Gram -; 10^6 cells/ml
[15] = system: P. aeruginosa IFO 12689; assay: as above; type: cell-based; conditions: Pseudomonas aeruginosa, IFO12689
[16] = system: Clostridium difficile I-E; assay: In vitro antibacterial activity (anaerobic bacteria), MIC; type: cell-based; conditions: Clostridioides difficile; anaerobic; Gram +; 10^6 cells/ml; read-out: MIC
[17] = system: Peptostreptococcus anaerobius KYA 27337; assay: as above; type: cell-based; conditions: KYA27337, anaerobic, Gram +, 10^6 cells/ml, read-out: MIC
[18] = system: B. distasonis 8503; assay: as above; type: cell-based; conditions: Parabacteroides distasonis, Gram -, 10^6 cells/ml, read-out: MIC
[19] = system: P. cepacia GIFU 518; assay: In vitro antibacterial activity (aerobic bacteria), MIC; type: cell-based; conditions: Burkholderia cepacia, GIFU518; aerobic; Gram -; 10^6 cells/ml; read-out: MIC
[20] = system: C. ramosum; assay: In vitro antibacterial activity (anaerobic bacteria), MIC; type: cell-based; conditions: anaerobic, Gram +, 10^6 cells/ml
[21] = system: Pst micros UPI 5464-1; assay: microbe, parasite or virus in culture; type: cell-based; conditions: anaerobic; Gram +; 10^6 cells/ml
[22] = system: Shigella sonnei IID 969; assay: In vitro antibacterial activity (aerobic bacteria), MIC; type: cell-based; conditions: IID969, Gram -, 10^6 cells/ml
Experimental: as §1

[23] = system: Serratia marcescens IID 618; assay: as above; type: cell-based; conditions: IID618, Gram -, 10^6 cells/ml
Experimental: as §1

[24] = system: Proteus vulgaris IFO 3167; assay: as above; type: cell-based; conditions: IFO3167, Gram -, 10^6 cells/ml
Experimental: as §1

[25] = system: K. pneumoniae 1-220S; assay: as above; type: cell-based; conditions: Klebsiella pneumoniae, 1220S, Gram -, 10^6 cells/ml
Experimental: as §1

[26] = system: Staphylococcus aureus 209 P; assay: as above; type: cell-based; conditions: Gram +, 10^6 cells/ml
Experimental: as §1

[27] = system: Pseudomonas aeruginosa V-1; assay: as above; type: cell-based; conditions: Gram -, 10^6 cells/ml
Experimental: as §1

[28] = system: Morganella morganii IID 602; assay: as above; type: cell-based; conditions: 10^6 cells/ml
Experimental: as §1

[29] = system: Acinetobacter anitratus IID 876; assay: as above; type: cell-based; conditions: 10^6 cells/ml
Experimental: as §1

[30] = system: E. coli ATCC 10536; assay: as above; type: cell-based; conditions: Escherichia coli, ATCC10536, Gram -, 10^6 cells/ml
Experimental: as §1

[31] = system: P. mirabilis IID 994; assay: as above; type: cell-based; conditions: Proteus mirabilis, IID994, Gram -, 10^6 cells/ml
Experimental: as §1

[32] = system: S. epidermidis IID 866; assay: as above; type: cell-based; conditions: Staphylococcus epidermidis, IID866, Gram +, 10^6 cells/ml
Experimental: as §1

[33] = system: S. aureus IID 670 (Terajima); assay: as above; type: cell-based; conditions: Staphylococcus aureus, IID670, Gram +, 10^6 cells/ml
Experimental: as §1

[34] = system: B. thetaiotaomicron (0661); assay: In vitro antibacterial activity (anaerobic bacteria), MIC; type: cell-based; conditions: anaerobic, Gram -, 10^6 cells/ml
[35] = system: Bacteroides fragilis GM 7000; assay: as above; type: cell-based; conditions: GM7000
[36] = system: Citrobacter freundii IID 976; assay: In vitro antibacterial activity (aerobic bacteria), MIC; type: cell-based
[37] = system: Fusobacterium necrophorum S-45; assay: In vitro antibacterial activity (anaerobic bacteria), MIC; type: cell-based; conditions: S45, anaerobic, Gram -, 10^6 cells/ml, read-out: MIC
[38] = system: Escherichia coli NIHJ JC-2; assay: In vitro antibacterial activity (aerobic bacteria), MIC; type: cell-based; conditions: NIHJJC2, aerobic, Gram -, 10^6 cells/ml
[39] = system: Klebsiella pneumoniae KY(GN)6445; assay: as above; type: cell-based
[40] = system: Alcaligenes faecalis 0114002; assay: as above; type: cell-based; conditions: Alcaligenes faecalis, 0114002, aerobic; Gram -; 10^6 cells/ml
[41] = system: P. maltophilia GIFU 2491; assay: as above; type: cell-based; conditions: Stenotrophomonas maltophilia, GIFU2491; aerobic; Gram -; 10^6 cells/ml; read-out: MIC
[42] = anaerobic, Gram -, 10^6 cells/ml, read-out: MIC
[43] = Pseudomonas aeruginosa, V1, aerobic, read-out: MIC
[44] = Morganella morganii, IID602, Gram -, read-out: MIC
[45] = Acinetobacter calcoaceticus, IID876, Gram -, read-out: MIC

For `CCn1cc(C(=O)O)c(=O)c2cc(F)c(N3CCNCC3)cc21` [norfloxacin], the antibacterial activity ([1]; gram-negative bacteria including Pseudomonas aeruginosa and gram-positive bacteria) is listed as “high antibacterial activity”.

In the case of `CCn1cc(C(=O)O)c(=O)c2cc(F)c(N3CCC(N)C3)c(C)c21` (centres unmarked) [Exp. 25, 7-(3-Amino-1-pyrrolidinyl)-1-ethyl-6-fluoro-1,4-dihydro-8-methyl-4-oxo-3-quinolinecarboxylic acid], the MIC [2, 42] is reported as 1.56 µg/mL (≈ 4.68 µM), the MIC [3] is reported as 0.05 µg/mL (≈ 0.15 µM) and the MIC [4] is reported as 0.39 µg/mL (≈ 1.17 µM). The MIC ([5]; Finegoldia magna, KY017, Gram +, read-out: MIC) was 0.39 µg/mL (≈ 1.17 µM), the MIC [6] was 0.1 µg/mL (≈ 0.3 µM) and the MIC [7] was 0.78 µg/mL (≈ 2.34 µM). It also gave an MIC [8] of 12.5 µg/mL (≈ 37.5 µM), an MIC [9] of 0.78 µg/mL (≈ 2.34 µM) and an MIC [10] of 0.1 µg/mL (≈ 0.3 µM). It also gave an MIC [11, 42] of 1.56 µg/mL (≈ 4.68 µM), an MIC [12] of 0.1 µg/mL (≈ 0.3 µM) and an MIC [13] of 6.25 µg/mL (≈ 18.7 µM). It also gave an MIC [14] of 0.78 µg/mL (≈ 2.34 µM), an MIC ([15]; aerobic, Gram -, 10^6 cells/ml, read-out: MIC) of 1.56 µg/mL (≈ 4.68 µM) and an MIC [16] of 6.25 µg/mL (≈ 18.7 µM). The MIC [17] was 1.56 µg/mL (≈ 4.68 µM), the MIC [18] was 6.25 µg/mL (≈ 18.7 µM) and the MIC [19] was 1.56 µg/mL (≈ 4.68 µM). For the same molecule, the MIC ([20]; Thomasclavelia ramosa, read-out: MIC) was 12.5 µg/mL (≈ 37.5 µM), the MIC [21] was 0.39 µg/mL (≈ 1.17 µM) and the MIC [22] was 0.05 µg/mL (≈ 0.15 µM). It also gave an MIC [23] of 0.05 µg/mL (≈ 0.15 µM), an MIC [24] of 0.0125 µg/mL (≈ 0.0375 µM) and an MIC [25] of 0.1 µg/mL (≈ 0.3 µM). For the same molecule, the MIC [26] was 0.2 µg/mL (≈ 0.6 µM), the MIC [27, 43] was 0.39 µg/mL (≈ 1.17 µM) and the MIC [28, 44] was 0.2 µg/mL (≈ 0.6 µM). The MIC [29, 45] was 0.78 µg/mL (≈ 2.34 µM), the MIC [30] was 0.025 µg/mL (≈ 0.075 µM) and the MIC [31] was 0.05 µg/mL (≈ 0.15 µM). It also gave an MIC [32] of 0.2 µg/mL (≈ 0.6 µM), an MIC [33] of 0.2 µg/mL (≈ 0.6 µM) and an MIC ([34]; Bacteroides thetaiotaomicron, read-out: MIC) of 6.25 µg/mL (≈ 18.7 µM). The MIC [35] was 3.13 µg/mL (≈ 9.39 µM), the MIC ([36]; Citrobacter freundii, IID976) was 0.05 µg/mL (≈ 0.15 µM) and the MIC [37] was 1.56 µg/mL (≈ 4.68 µM). It also gave an MIC [38] of 0.0125 µg/mL (≈ 0.0375 µM), an MIC [39] of 0.1 µg/mL (≈ 0.3 µM) and an MIC [40] of 0.78 µg/mL (≈ 2.34 µM). It also gave an MIC [41] of 1.56 µg/mL (≈ 4.68 µM).

Molecule `O=C(O)c1cn(C2CC2)c2cc(N3CCNCC3)c(F)cc2c1=O` [CPFX, ciprofloxacin, reference compound] has an MIC [2] of 3.13 µg/mL (≈ 9.45 µM), an MIC [4] of 0.2 µg/mL (≈ 0.604 µM) and an MIC ([5]; Gram +) of 0.20 µg/mL (≈ 0.604 µM). For the same molecule, the MIC [10] was 0.05 µg/mL (≈ 0.151 µM), the MIC [11] was 3.13 µg/mL (≈ 9.45 µM) and the MIC [12] was 0.05 µg/mL (≈ 0.151 µM). For the same molecule, the “antibacterial activity compared with norfloxacin” value [1] was “stronger antibacterial activity than norfloxacin”, the “antibacterial potency against gram-positive bacteria” value ([1]; compared with gram-negative bacteria) was “considerably inferior to that against gram-negative bacteria” and the MIC [15] was 0.2 µg/mL (≈ 0.604 µM). For the same molecule, the MIC [20] was 6.25 µg/mL (≈ 18.9 µM), the MIC [23] was 0.05 µg/mL (≈ 0.151 µM) and the MIC [25] was 0.05 µg/mL (≈ 0.151 µM). The MIC [26] was 0.2 µg/mL (≈ 0.604 µM), the MIC [27, 43] was 0.05 µg/mL (≈ 0.151 µM) and the MIC ([27]; aerobic) was 0.10 µg/mL (≈ 0.302 µM). It also gave an MIC ([28]; Gram -) of 0.025 µg/mL (≈ 0.0754 µM), an MIC [28, 44] of 0.05 µg/mL (≈ 0.151 µM) and an MIC [29, 45] of 0.1 µg/mL (≈ 0.302 µM). The MIC ([29]; Gram -) was 0.20 µg/mL (≈ 0.604 µM), the MIC [31] was 0.025 µg/mL (≈ 0.0754 µM) and the MIC [32] was 0.2 µg/mL (≈ 0.604 µM). The MIC [33] was 0.2 µg/mL (≈ 0.604 µM), the MIC [34] was 25 µg/mL (≈ 75.4 µM) and the MIC [35] was 6.25 µg/mL (≈ 18.9 µM). The MIC ([36]; aerobic, Gram -, 10^6 cells/ml) was 0.0063 µg/mL (≈ 0.019 µM), the MIC [38] was ≤ 0.0063 µg/mL and the MIC [40] was 0.2 µg/mL (≈ 0.604 µM).
